Test results from paper PMC11249646, “Small-Molecule Disruptors of the Interaction between Calcium- and Integrin-Binding Protein 1 and Integrin αIIbβ3 as Novel Antiplatelet Agents” (ACS Pharmacology & Translational Science, 2024).
pIC50: −log10 of the molar value. Read-outs that look alike come from different tables or passages of the source. Blank lines part the entries; values can stand above or below the compound they belong to.

Legend:
[1] = molecular target: T1, CIB1 and αIIb interaction (CIB1-GST : F-αIIb peptide) (Homo sapiens, UniProt Q99828); assay: FP assay, 1536-well qHTS format (primary and confirmatory screen); assay type: binding; conditions: for Curve Class (confirmatory screen) / CONFIRMATORY SCREEN Curve Class: qHTS curve class; for Efficacy (%) / Curve Class / pIC50: Table S2; for pIC50: read-out: IC50; for IC50: read-out: IC50 [μM] (confirmatory screen)
T1 construct: made in house; host or cells: BL-21 plus RIL cells (E. coli)
T1 sequence (Q99828 1-191): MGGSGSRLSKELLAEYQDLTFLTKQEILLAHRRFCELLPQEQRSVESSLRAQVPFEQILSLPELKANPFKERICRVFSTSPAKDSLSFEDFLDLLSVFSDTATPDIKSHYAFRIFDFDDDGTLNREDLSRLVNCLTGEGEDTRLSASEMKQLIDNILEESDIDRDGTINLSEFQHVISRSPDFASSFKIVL

[2] = molecular target: T2, GST-CIB1 : F-scrambled peptide (Homo sapiens, UniProt Q99828); assay: FP scrambled-peptide counter screen, 1536-well format; assay type: binding; conditions: for Curve Class (counterscreen) / COUNTERSCREEN Curve Class: qHTS curve class; for IC50: read-out: IC50 [μM] (counterscreen)
T2 construct: made in house; host or cells: BL-21 plus RIL cells (E. coli)
T2 sequence (Q99828 1-191): T1 sequence (Q99828 1-191)

[3] = Table S3, confirmatory screen, a negative sign marks inhibitory curves
[4] = Table S3, confirmatory screen, negative = inhibition
[5] = qHTS primary screen hits, negative = inhibition
[6] = qHTS primary screen hits, negative sign = inhibitory curve
[7] = Table S3, counterscreen, a negative sign marks inhibitory curves
[8] = Table S3, counterscreen, negative = inhibition
[9] = confirmatory screen, negative sign = inhibitory curve
[10] = qHTS primary screen hits, negative sign = inhibitory curve, several classes where COUNT > 1
[11] = counterscreen, negative sign = inhibitory curve
[12] = qHTS FP screen hits, negative = inhibition
[13] = Table S3, confirmatory screen, YES/NO call
[14] = qHTS FP screen hits, one class per curve where COUNT > 1, negative sign = inhibitory curve

Compound: O=C(O)C(F)(F)F.O=C1CCCC2=C1C(c1ccn[nH]1)N=C(Nc1nc3ccccc3o1)N2 (stereo not drawn) [NCGC00229725-01]
Curve Class (confirmatory screen) [1, 3]: 4
Efficacy (%) (confirmatory screen) [1, 4]: -29%
Efficacy (%) [1, 5]: -32%
Curve Class [1, 6]: -2.2
pIC50 ([1]; qHTS primary screen hits): 4.60
Curve Class (counterscreen) [2, 7]: 4
Efficacy (%) (counterscreen) [2, 8]: -32%

Compound: CCNC(=O)c1ccc(-c2ccc3ncnc(N4CCOCC4)c3c2)o1.O=C(O)C(F)(F)F [NCGC00238377-01]
Efficacy (%) (confirmatory screen) ([1]; confirmatory screen): -45%
Confirm? (confirmatory screen) ([1]; confirmatory screen, YES/NO): YES
Curve Class (confirmatory screen) [1, 9]: -1.4
Efficacy (%) [1, 5]: -23%
Curve Class [1, 10]: -2.4
pIC50 ([1]; qHTS primary screen hits): 4.55
Efficacy (%) (counterscreen) ([2]; counterscreen): -38%
Curve Class (counterscreen) [2, 11]: -2.2
IC50 ([2]; counterscreen): 44.7 µM

Compound: CC(O)c1ccc(-c2ccc3ncnc(N4CCOCC4)c3c2)o1.O=C(O)C(F)(F)F (stereo not drawn) [NCGC00238381-02]
CONFIRMATORY SCREEN Efficacy (%) ([1]; confirmatory screen): -26%
CONFIRMATORY SCREEN Curve Class ([1]; confirmatory screen): 4
Efficacy (%) [1, 12]: -19%
pIC50 ([1]; qHTS FP screen hits): 4.85
COUNTERSCREEN Efficacy (%) ([2]; counterscreen): -14%
COUNTERSCREEN Curve Class ([2]; counterscreen): 4

Compound: CCOC(=O)c1[nH]c2c(c1C)C(=S)CC(c1ccco1)C2.O=C(O)C(F)(F)F (stereo not drawn) [NCGC00238571-01]
Efficacy (%) (confirmatory screen) ([1]; confirmatory screen): -73%
Confirm? (confirmatory screen) ([1]; confirmatory screen, YES/NO): YES
Curve Class (confirmatory screen) [1, 9]: -1.2
IC50 ([1]; confirmatory screen): 35.5 µM
Efficacy (%) [1, 5]: -69%
Curve Class [1, 10]: -2.2
pIC50 ([1]; qHTS primary screen hits): 4.30
Efficacy (%) (counterscreen) ([2]; counterscreen): -30%
Curve Class (counterscreen) [2, 11]: -1.4
IC50 ([2]; counterscreen): 7.1 µM

Compound: O=C(O)C(F)(F)F.O=C1CCCC2=C1C(c1n[nH]cc1Cl)NC(Nc1nc3ccccc3o1)=N2 (stereo not drawn) [NCGC00238624-04]
Confirm? (confirmatory screen) [1, 13]: YES
Curve Class (confirmatory screen) [1, 3]: -1.2
Efficacy (%) (confirmatory screen) [1, 4]: -34%
IC50 ([1]; Table S3, confirmatory screen): 25.1 µM
Curve Class (counterscreen) [2, 7]: -1.2
Efficacy (%) (counterscreen) [2, 8]: -54%
IC50 ([2]; Table S3, counterscreen): 35.5 µM

Compound: Cc1ccc(OCCn2c(CCNC(=O)c3ccsc3)nc3ccccc32)cc1.O=C(O)C(F)(F)F [NCGC00238707-01]
Curve Class (confirmatory screen) [1, 3]: 3
Efficacy (%) (confirmatory screen) [1, 4]: 35%
Efficacy (%) [1, 5]: -22%
Curve Class [1, 10]: -1.4
pIC50 ([1]; qHTS primary screen hits): 4.95
Efficacy (%) (counterscreen) [2, 8]: 109%
IC50 ([2]; Table S3, counterscreen): 50.1 µM

Compound: CCOC(=O)c1ccc(O)c2ncc(N3CCC(C(=N)N)CC3)cc12.O=C(O)C(F)(F)F [NCGC00241051-01]
Efficacy (%) (confirmatory screen) ([1]; confirmatory screen): -129%
Confirm? (confirmatory screen) ([1]; confirmatory screen, YES/NO): YES
Curve Class (confirmatory screen) [1, 9]: -1.1
Efficacy (%) [1, 5]: -93%
Curve Class [1, 10]: -1.1
Efficacy (%) (counterscreen) ([2]; counterscreen): -115%
Curve Class (counterscreen) [2, 11]: -1.3
IC50 ([2]; counterscreen): 7.1 µM

Compound: CC1(C)OB(c2ccc(O)c3ncc(N4CCNCC4)cc23)OC1(C)C.O=C(O)C(F)(F)F [NCGC00241053-01]
Efficacy (%) (confirmatory screen) ([1]; confirmatory screen): -132%
Confirm? (confirmatory screen) ([1]; confirmatory screen, YES/NO): YES
Curve Class (confirmatory screen) [1, 9]: -2.1
IC50 ([1]; confirmatory screen): 31.6 µM
Efficacy (%) [1, 5]: -78%
Curve Class [1, 10]: -2.2
pIC50 ([1]; qHTS primary screen hits): 4.30
Efficacy (%) (counterscreen) ([2]; counterscreen): -102%
Curve Class (counterscreen) [2, 11]: -1.1
IC50 ([2]; counterscreen): 20 µM

Compound: NC(=O)c1cccc(-c2cnc3c(O)ccc(C(=O)O)c3c2)c1.O=C(O)C(F)(F)F [NCGC00241055-01]
Curve Class (confirmatory screen) [1, 3]: 4
Efficacy (%) (confirmatory screen) [1, 4]: -31%
Efficacy (%) [1, 5]: -35%
Curve Class [1, 6]: -2.4
pIC50 ([1]; qHTS primary screen hits): 4.50
Confirm? (counterscreen) ([2]; Table S3, counterscreen, YES/NO call): YES
Curve Class (counterscreen) [2, 7]: -2.4
Efficacy (%) (counterscreen) [2, 8]: -42%
IC50 ([2]; Table S3, counterscreen): 35.5 µM

Efficacy (%) (confirmatory screen) ([1]; confirmatory screen): -73%
Confirm? (confirmatory screen) ([1]; confirmatory screen, YES/NO): YES
Curve Class (confirmatory screen) [1, 9]: -2.2
IC50 ([1]; confirmatory screen): 44.7 µM
Efficacy (%) [1, 12]: -33%
Curve Class [1, 14]: -2.2
pIC50 ([1]; qHTS FP screen hits): 4.30
Efficacy (%) (counterscreen) ([2]; counterscreen): -37%
Curve Class (counterscreen) [2, 11]: -1.4
IC50 ([2]; counterscreen): 20 µM
Compound: COc1cc(Nc2c(C#N)cnc3cc(OCCCN4CCN(C)CC4)c(OC)cc23)c(Cl)cc1Cl [NCGC00241107-05]

Compound: CCOc1ccc(CCNC(C)=O)cc1OCC.O=C(O)C(F)(F)F [NCGC00241413-01]
CONFIRMATORY SCREEN Efficacy (%) ([1]; confirmatory screen): -11%
CONFIRMATORY SCREEN Curve Class ([1]; confirmatory screen): 4
Efficacy (%) [1, 12]: -45%
Curve Class [1, 14]: -2.2
pIC50 ([1]; qHTS FP screen hits): 4.40
COUNTERSCREEN Efficacy (%) ([2]; counterscreen): 0%
COUNTERSCREEN Curve Class ([2]; counterscreen): 4

Compound: CCOc1ccc(CCNC(=O)c2ccc(N3N=C(C)CC3=O)cc2)cc1OCC.O=C(O)C(F)(F)F [NCGC00241439-01]
Curve Class (confirmatory screen) [1, 3]: 4
Efficacy (%) (confirmatory screen) [1, 4]: -41%
Efficacy (%) [1, 5]: -42%
Curve Class [1, 10]: -1.2
pIC50 ([1]; qHTS primary screen hits): 4.65
Curve Class (counterscreen) [2, 7]: 4
Efficacy (%) (counterscreen) [2, 8]: -33%

Compound: CN(C(=O)c1cccs1)c1cccnc1.O=C(O)C(F)(F)F [NCGC00241518-01]
Confirm? (confirmatory screen) [1, 13]: YES
Curve Class (confirmatory screen) [1, 3]: -1.1
Efficacy (%) (confirmatory screen) [1, 4]: -90%
IC50 ([1]; Table S3, confirmatory screen): 31.6 µM
Efficacy (%) [1, 12]: -77%
Curve Class [1, 14]: -2.2
pIC50 ([1]; qHTS FP screen hits): 4.30
Curve Class (counterscreen) [2, 7]: -2.1
Efficacy (%) (counterscreen) [2, 8]: -118%
IC50 ([2]; Table S3, counterscreen): 44.7 µM

CONFIRMATORY SCREEN Efficacy (%) ([1]; confirmatory screen): -10%
CONFIRMATORY SCREEN Curve Class ([1]; confirmatory screen): 4
Efficacy (%) [1, 5]: -23%
Curve Class [1, 10]: -2.4
pIC50 ([1]; qHTS primary screen hits): 4.40
COUNTERSCREEN Efficacy (%) ([2]; counterscreen): -33%
COUNTERSCREEN Curve Class ([2]; counterscreen): 4
Compound: CCN1C(=O)c2ccccc2[S+]([O-])c2ccc(C(=O)Nc3ncc(C)s3)cc21 (stereo not drawn) [NCGC00241655-01]

Efficacy (%) (confirmatory screen) ([1]; confirmatory screen): -68%
Confirm? (confirmatory screen) ([1]; confirmatory screen, YES/NO): YES
Curve Class (confirmatory screen) [1, 9]: -2.2
IC50 ([1]; confirmatory screen): 50.1 µM
Efficacy (%) [1, 5]: -70%
Curve Class [1, 6]: -2.2
pIC50 ([1]; qHTS primary screen hits): 4.40
Efficacy (%) (counterscreen) ([2]; counterscreen): -26%
Confirm? (counterscreen) ([2]; counterscreen, YES/NO): YES
Curve Class (counterscreen) [2, 11]: -1.4
IC50 ([2]; counterscreen): 35.5 µM
Compound: CCN1C(=O)c2ccccc2[S+]([O-])c2ccc(C(=O)NCc3cccc(F)c3)cc21 (stereo not drawn) [NCGC00241657-01]

Compound: Fc1ccc(NC(=S)Nc2nnc(-c3ccncc3)s2)cc1C(F)(F)F.O=C(O)C(F)(F)F [NCGC00241743-01]
CONFIRMATORY SCREEN Efficacy (%) ([1]; confirmatory screen): -35%
CONFIRMATORY SCREEN Curve Class ([1]; confirmatory screen): 4
Efficacy (%) [1, 12]: -41%
Curve Class [1, 14]: -2.2
pIC50 ([1]; qHTS FP screen hits): 4.65
COUNTERSCREEN Efficacy (%) ([2]; counterscreen): 39%
COUNTERSCREEN Curve Class ([2]; counterscreen): 4

Compound: O=C(O)C(F)(F)F.O=C(O)c1ccc(O)c2ncc(N3CCC(N4CCOCC4)C3)cc12 (stereo not drawn) [NCGC00241757-01]
CONFIRMATORY SCREEN Efficacy (%) ([1]; confirmatory screen): -17%
CONFIRMATORY SCREEN Curve Class ([1]; confirmatory screen): 4
Efficacy (%) [1, 12]: -22%
pIC50 ([1]; qHTS FP screen hits): 4.45
COUNTERSCREEN Efficacy (%) ([2]; counterscreen): -21%
COUNTERSCREEN Curve Class ([2]; counterscreen): 4

Compound: O=C(O)C(F)(F)F.O=C(O)c1ccc(O)c2ncc(-c3n[nH]nc3-c3ccccc3)cc12 [NCGC00241764-01]
Efficacy (%) (confirmatory screen) ([1]; confirmatory screen): -23%
Confirm? (confirmatory screen) ([1]; confirmatory screen, YES/NO): YES
Curve Class (confirmatory screen) [1, 9]: -1.4
IC50 ([1]; confirmatory screen): 39.8 µM
Efficacy (%) [1, 12]: -21%
pIC50 ([1]; qHTS FP screen hits): 4.55
Efficacy (%) (counterscreen) ([2]; counterscreen): -33%
Confirm? (counterscreen) ([2]; counterscreen, YES/NO): YES
Curve Class (counterscreen) [2, 11]: 4

Compound: CC1=C[C@@H]2[C@H]([C@@H](O)C[C@@]3(C)[C@H]2C[C@@H](C)[C@]3(O)C(=O)CO)[C@@]2(C)Cc3cnn(-c4ccccc4)c3C=C12 [NCGC00242505-01]
Efficacy (%) (confirmatory screen) ([1]; confirmatory screen): -46%
Confirm? (confirmatory screen) ([1]; confirmatory screen, YES/NO): YES
Curve Class (confirmatory screen) [1, 9]: -1.4
IC50 ([1]; confirmatory screen): 15.8 µM
Efficacy (%) [1, 5]: -30%
pIC50 ([1]; qHTS primary screen hits): 4.42
Efficacy (%) (counterscreen) ([2]; counterscreen): -41%
Curve Class (counterscreen) [2, 11]: -1.2
IC50 ([2]; counterscreen): 12.6 µM
